Results on 40 compounds are retold here after patent publication US20240132464A1, “HETEROCYCLIC COMPOUNDS AS E3 LIGASE INHIBITORS” (Accutar Biotechnology Inc., priority 2022, published 2024).

Each structure is given as a SMILES string. pIC50: −log10 of the molar value.

The target in the assay is T1, GID4 (Uniprot ID: Q81VV7, residues 124-289) (Homo sapiens, UniProt Q8IVV7).
T1 construct: GID4 (Uniprot ID: Q81VV7, residues 124-289)
T1 sequence (Q8IVV7 124-289): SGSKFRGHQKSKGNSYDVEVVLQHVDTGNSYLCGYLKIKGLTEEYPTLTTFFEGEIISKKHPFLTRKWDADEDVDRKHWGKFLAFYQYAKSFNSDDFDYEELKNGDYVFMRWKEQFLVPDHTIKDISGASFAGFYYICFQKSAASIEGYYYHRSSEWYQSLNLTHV
Put plainly: GID4 competitive binding assay (AlphaScreen, GID4/degron peptide PGLW). Particulars: 24 nM GID4, 48 nM biotinylated degron peptide PGLW, 4° C., read-out: IC50 (Inhibition of GID4/Degron binding by test compounds). The method in brief:
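Displacement of biotin-tagged degron tetrapeptide PGLW (48 nM) from C-terminally 6His-tagged GID4 124-289 (24 nM) read by AlphaScreen proximity signal. Compound incubation 2 h, then beads 1 h, all at 4 °C, pH 7.5, 2% DMSO final; background-corrected inhibition fitted with variable slope for IC50.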
In general terms: In Alpha technology, singlet oxygen from a donor bead excites a nearby acceptor bead.
In the case of `CN(C)CCCNC(=O)c1ncc(-c2cc(O)c3ncccc3c2)[nH]1` [Compound 275, N-(3-(dimethylamino)propyl)-5-(8-hydroxyquinolin-6-yl)-1H-imidazole-2-carboxamide], the pIC50 was greater than 6.30.

Take `CN(C)CCCNC(=O)c1cnc(-c2cc(O)c3ncccc3c2)cn1` [Compound 276, N-(3-(dimethylamino)propyl)-5-(8-hydroxyquinolin-6-yl)pyrazine-2-carboxamide]: the pIC50 was greater than 6.30.

Turning to `CN(C)CCCNC(=O)c1c[nH]c(-c2cc(O)c3ncccc3c2)n1` [Compound 277, N-(3-(dimethylamino)propyl)-2-(8-hydroxyquinolin-6-yl)-1H-imidazole-4-carboxamide], the pIC50 was greater than 6.30.

For `O=C1NCCc2cc(-c3cccc(C(=O)N4CCCC4)c3)ccc21` [Compound 278, 6-(3-(pyrrolidine-1-carbonyl)phenyl)-3,4-dihydroisoquinolin-1(2H)-one], the pIC50 was 5.30 to 6.30.

Consider `CN(C)[C@H]1C[C@@H](NC(=O)c2ccc(-c3cc(O)c4ncccc4c3)cc2)C1` [Compound 279, N-(cis-3-(dimethylamino)cyclobutyl)-4-(8-hydroxyquinolin-6-yl)benzamide], for which the pIC50 was greater than 6.30.

`CN(C)[C@H]1C[C@H](NC(=O)c2ccc(-c3cc(O)c4ncccc4c3)cc2)C1` [Compound 280, N-(trans-3-(dimethylamino)cyclobutyl)-4-(8-hydroxyquinolin-6-yl)benzamide]: the pIC50 was greater than 6.30.

On to `CN(C)CCCNC(=O)c1csc(-c2cc(O)c3ncccc3c2)c1` [Compound 281, N-(3-(dimethylamino)propyl)-5-(8-hydroxyquinolin-6-yl)thiophene-3-carboxamide], for which the pIC50 was greater than 6.30.

As for `CN(C)CCCNC(=O)c1cnc(-c2cc(O)c3ncccc3c2)nc1` [Compound 282, N-(3-(dimethylamino)propyl)-2-(8-hydroxyquinolin-6-yl)pyrimidine-5-carboxamide], the pIC50 is greater than 6.30.

Turning to `CN(C)CCCNC(=O)c1cc(-c2cc(O)c3ncccc3c2)co1` [Compound 283, N-(3-(dimethylamino)propyl)-4-(8-hydroxyquinolin-6-yl)furan-2-carboxamide], the pIC50 is greater than 6.30.

Take `CN(C)CCCNC(=O)c1ccc(-c2cc(O)c3c(c2)CCCN3)cc1` [Compound 284, N-(3-(dimethylamino)propyl)-4-(8-hydroxy-1,2,3,4-tetrahydroquinolin-6-yl)benzamide]: the pIC50 is less than 5.30.

Turning to `CN(C)CCCNC(=O)c1ccc(-c2cc(O)c3nccnc3c2)cc1` [Compound 285, N-(3-(dimethylamino)propyl)-4-(8-hydroxyquinoxalin-6-yl)benzamide], the pIC50 was greater than 6.30.

As for `CN(C)[C@H]1CC[C@@H](NC(=O)c2ccc(-c3cc(O)c4ncccc4c3)cc2)CC1` [Compound 286, N-(cis-4-(dimethylamino)cyclohexyl)-4-(8-hydroxyquinolin-6-yl)benzamide], the pIC50 is greater than 6.30.

`CN(C)[C@H]1CC[C@H](NC(=O)c2ccc(-c3cc(O)c4ncccc4c3)cc2)CC1` [Compound 287, N-(trans-4-(dimethylamino)cyclohexyl)-4-(8-hydroxyquinolin-6-yl)benzamide]: the pIC50 was greater than 6.30.

Turning to `CN(C)CCCNC(=O)Cc1ccc(-c2cc(O)c3ncccc3c2)cc1` [Compound 288, N-(3-(dimethylamino)propyl)-2-(4-(8-hydroxyquinolin-6-yl)phenyl)acetamide], the pIC50 was greater than 6.30.

For `CN(C)CCCCNC(=O)c1ccc(-c2cc(O)c3ncccc3c2)cc1` [Compound 289, N-(4-(dimethylamino)butyl)-4-(8-hydroxyquinolin-6-yl)benzamide], the pIC50 was greater than 6.30.

As for `CN1CCCC(CNC(=O)c2ccc(-c3cc(O)c4ncccc4c3)cc2)C1` (stereo not shown) [Compound 290, 4-(8-hydroxyquinolin-6-yl)-N-((1-methylpiperidin-3-yl)methyl)benzamide], the pIC50 is greater than 6.30.

As for `CN1CC(NC(=O)c2ccc(-c3cc(O)c4ncccc4c3)cc2)C1` [Compound 291, 4-(8-hydroxyquinolin-6-yl)-N-(1-methylazetidin-3-yl)benzamide], the pIC50 was greater than 6.30.

Turning to `CN1CCC(CNC(=O)c2ccc(-c3cc(O)c4ncccc4c3)cc2)C1` (stereo not shown) [Compound 292, 4-(8-hydroxyquinolin-6-yl)-N-((1-methylpyrrolidin-3-yl)methyl)benzamide], the pIC50 was greater than 6.30.

As for `O=C(c1cccc(-c2cc(O)c3ncccc3c2)c1)N1CCCC1` [Compound 293, (3-(8-hydroxyquinolin-6-yl)phenyl)(pyrrolidin-1-yl)methanone], the pIC50 was 5.30 to 6.30.

As for `CN(C)CCCNC(=O)c1ccc(-c2cc(O)c3ncccc3c2)nc1` [Compound 294, N-(3-(dimethylamino)propyl)-6-(8-hydroxyquinolin-6-yl)nicotinamide], the pIC50 is greater than 6.30.

Take `CN(C)CCCNC(=O)c1ccc(-c2cc(O)c3ncccc3c2)cn1` [Compound 295, N-(3-(dimethylamino)propyl)-5-(8-hydroxyquinolin-6-yl)picolinamide]: the pIC50 was greater than 6.30.

Regarding `CN(C)CCCNC(=O)c1ccc(-c2cc(O)c3ncccc3c2)s1` [Compound 296, N-(3-(dimethylamino)propyl)-5-(8-hydroxyquinolin-6-yl)thiophene-2-carboxamide], the pIC50 was greater than 6.30.

As to `CN1CCC(NC(=O)c2ccc(-c3cc(O)c4ncccc4c3)cc2)CC1` [Compound 297, 4-(8-hydroxyquinolin-6-yl)-N-(1-methylpiperidin-4-yl)benzamide], the pIC50 was greater than 6.30.

Take `CN1CC(CNC(=O)c2ccc(-c3cc(O)c4ncccc4c3)cc2)C1` [Compound 298, 4-(8-hydroxyquinolin-6-yl)-N-((1-methylazetidin-3-yl)methyl)benzamide]: the pIC50 is greater than 6.30.

For `CN(C)CCNC(=O)c1ccc(-c2cc(O)c3ncccc3c2)cc1` [Compound 299, N-(2-(dimethylamino)ethyl)-4-(8-hydroxyquinolin-6-yl)benzamide], the pIC50 is greater than 6.30.

With `CN1CCC(CNC(=O)c2ccc(-c3cc(O)c4ncccc4c3)cc2)CC1` [Compound 300, 4-(8-hydroxyquinolin-6-yl)-N-((1-methylpiperidin-4-yl)methyl)benzamide], the pIC50 was greater than 6.30.

As for `O=C(c1ccc(-c2cc(O)c3ncccc3c2)cc1)N1CCCC1` [Compound 301, (4-(8-hydroxyquinolin-6-yl)phenyl)(pyrrolidin-1-yl)methanone], the pIC50 is 5.30 to 6.30.

Consider `CCCNC(=O)c1ccc(-c2cc(O)c3ncccc3c2)cc1` [Compound 302, 4-(8-hydroxyquinolin-6-yl)-N-propylbenzamide], for which the pIC50 is 5.30 to 6.30.

For the compound `CNCCCNC(=O)c1ccc(-c2cc(O)c3ncccc3c2)cc1` [Compound 303, 4-(8-hydroxyquinolin-6-yl)-N-(3-(methylamino)propyl)benzamide], the pIC50 was greater than 6.30.

With `CN(C)CCCNC(=O)c1ccc(-c2cc(O)c3ncccc3n2)cc1` [Compound 304, N-(3-(dimethylamino)propyl)-4-(4-hydroxy-1,5-naphthyridin-2-yl)benzamide], the pIC50 is 5.30 to 6.30.

Consider `CN(C)CCCNC(=O)C1CC=C(c2cc(O)c3ncccc3c2)CC1` (stereo not shown) [Compound 305, N-(3-(dimethylamino)propyl)-4-(8-hydroxyquinolin-6-yl)cyclohex-3-ene-1-carboxamide], for which the pIC50 was 5.30 to 6.30.

In the case of `CN(C)CCCNC(=O)N1CC=C(c2cc(O)c3ncccc3c2)CC1` [Compound 306, N-(3-(dimethylamino)propyl)-4-(8-hydroxyquinolin-6-yl)-3,6-dihydropyridine-1(2H)-carboxamide], the pIC50 was 5.30 to 6.30.

For `CN(C)CCCNC(=O)CN1CC=C(c2cc(O)c3ncccc3c2)CC1` [Compound 307, N-(3-(dimethylamino)propyl)-2-(4-(8-hydroxyquinolin-6-yl)-3,6-dihydropyridin-1(2H)-yl)acetamide], the pIC50 is greater than 6.30.

Turning to `CN(C)CCCNC(=O)c1ccc(-c2cc3cccnc3c(O)c2F)cc1` [Compound 308, N-(3-(dimethylamino)propyl)-4-(7-fluoro-8-hydroxyquinolin-6-yl)benzamide], the pIC50 is greater than 6.30.

Consider `CN(C)CCCC(=O)N1CC=C(c2cc(O)c3ncccc3c2)CC1` [Compound 309, 4-(dimethylamino)-1-(4-(8-hydroxyquinolin-6-yl)-3,6-dihydropyridin-1(2H)-yl)butan-1-one], for which the pIC50 was 5.30 to 6.30.

With `CN(C)CCCNC(=O)c1ccc(-c2cc(O)c3ncccc3c2)c(F)c1Cl` [Compound 310, 2-chloro-N-(3-(dimethylamino)propyl)-3-fluoro-4-(8-hydroxyquinolin-6-yl)benzamide], the pIC50 was 5.30 to 6.30.

In the case of `Cc1cc(-c2cc(O)c3ncccc3c2)ccc1C(=O)NCCCN(C)C` [Compound 311, N-(3-(dimethylamino)propyl)-4-(8-hydroxyquinolin-6-yl)-2-methylbenzamide], the pIC50 is 5.30 to 6.30.

`CN(C)CCCNC(=O)c1ccc(-c2cc(O)c3ncccc3c2)cc1N` [Compound 312, 2-amino-N-(3-(dimethylamino)propyl)-4-(8-hydroxyquinolin-6-yl)benzamide]: the pIC50 was greater than 6.30.

On to `CN(C)CCCNC(=O)c1ccc(-c2cc(O)c3ncccc3c2)cc1Br` [Compound 313, 2-bromo-N-(3-(dimethylamino)propyl)-4-(8-hydroxyquinolin-6-yl)benzamide], for which the pIC50 was 5.30 to 6.30.

With `CN(C)CCCNC(=O)c1c(F)cc(-c2cc(O)c3ncccc3c2)cc1F` [Compound 314, N-(3-(dimethylamino)propyl)-2,6-difluoro-4-(8-hydroxyquinolin-6-yl)benzamide], the pIC50 is 5.30 to 6.30.
